From US20150105252A1, “SUBSTITUTED PYRAZOLES AS HERBICIDES” (E I DU PONT DE NEMOURS AND COMPANY, priority 2013, published 2015)

Experiments:
[1] = tested on: cocklebur; experiment: Test C postemergence; type: in vivo, Xanthium strumarium; conditions: for Cocklebur plant response rating: scale 0 to 100
Excerpt: (§1) Seeds of plant species selected from blackgrass (Alopecurus myosuroides), ryegrass, Italian (Italian ryegrass, Lolium multiflorum), wheat (winter wheat, Triticum aestivum), galium (catchweed bedstraw, Galium aparine), corn (Zea mays), crabgrass, large (large crabgrass, Digitaria sanguinalis), foxtail, giant (giant foxtail, Setaria faberii), johnsongrass (Sorghum halepense), lambsquarters (Chenopodium album), morningglory (Ipomoea coccinea), nutsedge, yellow (yellow nutsedge, Cyperus esculentus), pigweed (redroot pigweed, Amaranthus retroflexus), ragweed (common ragweed, Ambrosia elation), soybean (Glycine max), barnyardgrass (Echinochloa crus-galli), oilseed rape (Brassica napus), waterhemp (common waterhemp, Amaranthus rudis), oat, wild (wild oat, Avena fatua), kochia (Kochia scoparia), Surinam grass (Brachiaria decumbens), foxtail, green (green foxtail, Setaria viridis), goosegrass (Eleusine indica), bromegrass, downy (downy bromegrass, Bromus tectorum), nightshade (eastern black nightshade, Solanum ptycanthum), cocklebur (common cocklebur, Xanthium strumarium), cupgrass, woolly (woolly cupgrass, Eriochloa villosa), bermudagrass (Cynodon dactylon), sunflower, (common oilseed sunflower, Helianthus annuus), Russian thistle (Salsola kali), and velvetleaf (Abutilon theophrasti) were planted into a blend of loam soil and sand and treated preemergence with test chemicals formulated in a non-phytotoxic solvent mixture which included a surfactant.
(§2) At the same time, plants selected from these crop and weed species and also chickweed (common chickweed, Stellaria media), canarygrass (littleseed canarygrass, Phalaris minor), and deadnettle (henbit deadnettle, Lamium amplexicaule), were planted in pots containing Redi-Earth® planting medium (Scotts Company, 14111 Scottslawn Road, Marysville, Ohio 43041) comprising spaghnum peat moss, vermiculite, wetting agent and starter nutrients and treated with postemergence applications of test chemicals formulated in the same manner. Plants ranged in height from 2 to 18 cm (1- to 4-leaf stage) for postemergence treatments. Treated plants and controls were maintained in a greenhouse for 13 to 15 days, after which time all species were compared to controls and visually evaluated. Plant response ratings, summarized in Table C, are based on a scale of 0 to 100 where 0 is no effect and 100 is complete control. A dash (-) response means no test result.

[2] = tested on: canarygrass; experiment: Test C postemergence; type: in vivo, Phalaris minor; conditions: for Canarygrass plant response rating: scale 0 to 100
Excerpt: as §1, §2

[3] = tested on: nightshade; experiment: Test C preemergence; type: in vivo, Solanum ptycanthum; conditions: for Plant response rating (scale of 0 to 100), Nightshade: Preemergence, 250 g ai/ha; for Nightshade plant response rating / Plant response rating, Nightshade: preemergence; for Plant response rating, Nightshade: 62 g ai/ha, scale 0 to 100, 0 = no effect, 100 = complete control
Excerpt: as §1, §2

[4] = tested on: Russian thistle; experiment: Test D preemergence; type: in vivo, Salsola kali; conditions: for Plant response rating (scale 0 to 100), Russian Thistle: 16 g ai/ha, taken as preemergence; for Plant response rating, Russian Thistle: Preemergence, scale 0 to 100
Excerpt: Seeds of plant species selected from bluegrass (annual bluegrass, Poa annua), blackgrass (Alopecurus myosuroides), canarygrass (littleseed canarygrass, Phalaris minor), chickweed (common chickweed, Stellaria media), galium (catchweed bedstraw, Galium aparine), bromegrass, downy (downy bromegrass, Bromus tectorum), field poppy (Papaver rhoeas), field violet (Viola arvensis), foxtail, green (green foxtail, Setaria viridis), deadnettle (henbit deadnettle, Lamium amplexicaule), ryegrass, Italian (Italian ryegrass, Lolium multiflorum), kochia (Kochia scoparia), lambsquarters (Chenopodium album), oilseed rape (Brassica napus), pigweed (redroot pigweed, Amaranthus retroflexus), chamomile (scentless chamomile, Matricaria inodora), speedwell (bird's-eye speedwell, Veronica persica), barley, spring (spring barley, Hordeum vulgare), wheat, spring (spring wheat, Triticum aestivum), buckwheat, wild (wild buckwheat, Polygonum convolvulus), mustard, wild (wild mustard, Sinapis arvensis), oat, wild (wild oat, Avena fatua), radish, wild (wild radish, Raphanus raphanistrum), windgrass (Apera spica-venti), Russian thistle (Salsola kali), barley, winter (winter barley, Hordeum vulgare), and wheat, winter (winter wheat, Triticum aestivum) were planted into a silt loam soil and treated preemergence with test chemicals formulated in a non-phytotoxic solvent mixture which included a surfactant.
At the same time, these species were planted in pots containing Redi-Earth® planting medium (Scotts Company, 14111 Scottslawn Road, Marysville, Ohio 43041) comprising spaghnum peat moss, vermiculite, wetting agent and starter nutrients and treated with postemergence applications of the test chemicals formulated in the same manner. Plants ranged in height from 2 to 18 cm (1- to 4-leaf stage). Treated plants and controls were maintained in a controlled growth environment for 14 to 21 days after which time all species were compared to controls and visually evaluated. Plant response ratings, summarized in Table D, are based on a scale of 0 to 100 where 0 is no effect and 100 is complete control. A dash (-) response means no test result.

[5] = tested on: common waterhemp; experiment: Test F preemergence; type: in vivo, Amaranthus rudis
Excerpt: (§3) Seeds of plant species selected from corn (Zea mays), soybean (Glycine max), velvetleaf (Abutilon theophrasti), lambsquarters (Chenopodium album), wild poinsettia (Euphorbia heterophylla), pigweed, palmer (palmer pigweed, Amaranthus palmeri), common waterhemp (Amaranthus rudis), surinam grass (Brachiaria decumbens), large crabgrass (Digitaria sanguinalis), crabgrass, Brazil (Brazilian crabgrass, Digitaria horizontalis), fall panicum (Panicum dichotomiflorum), giant foxtail (Setaria faberii), green foxtail (Setaria viridis), goosegrass (Eleusine indica), johnsongrass (Sorghum halepense), common ragweed (Ambrosia elation), barnyardgrass (Echinochloa crus-galli), southern sandbur (Cenchrus echinatus), arrowleaf sida (Sida rhombifolia), Italian ryegrass (Lolium multiflorum), dayflower, VA (Virginia (VA) dayflower, Commelina virginica), field bindweed (Convolvulus arvensis), cocklebur (common cocklebur, Xanthium strumarium), morningglory (Ipomoea coccinea), nightshade (eastern black nightshade, Solanum ptycanthum), kochia (Kochia scoparia), yellow nutsedge (Cyperus esculentus), and hairy beggarticks (Bidens pilosa), were planted into a silt loam soil and treated preemergence with test chemicals formulated in a non-phytotoxic solvent mixture which included a surfactant.
(§4) At the same time, plants from these crop and weed species and also horseweed (Canada horseweed, Conyza canadensis), smartweed (ladysthumb smartweed, Polygonum persicaria), waterhemp_RES1, (ALS & Triazine resistant common waterhemp, Amaranthus rudis), and waterhemp_RES2, (ALS & HPPD resistant common waterhemp, Amaranthus rudis) were treated with postemergence applications of test chemicals formulated in the same manner. Plants ranged in height from 2 to 18 cm for postemergence treatments (1- to 4-leaf stage). Treated plants and controls were maintained in a greenhouse for 14 to 21 days, after which time all species were compared to controls and visually evaluated. Plant response ratings, summarized in Table F, are based on a scale of 0 to 100 where 0 is no effect and 100 is complete control. A dash (-) response means no test result.

[6] = tested on: green foxtail; experiment: Test F preemergence; type: in vivo, Setaria viridis
Excerpt: as §3, §4

[7] = postemergence, 250 g ai/ha, scale 0 to 100 (0 no effect, 100 complete control)
[8] = postemergence, 62 g ai/ha, scale 0 to 100, 0 no effect, 100 complete control
[9] = postemergence, 125 g ai/ha, scale 0 to 100, 0 no effect, 100 complete control
[10] = 31 g ai/ha, scale 0 to 100 (0 no effect, 100 complete control), 13 to 15 days
[11] = 125 g ai/ha, scale 0 to 100, 0 is no effect, 100 is complete control
[12] = Preemergence, 31 g ai/ha, scale 0 to 100
[13] = Preemergence, 62 g ai/ha, scale 0 to 100
[14] = Preemergence, 125 g ai/ha, scale 0 to 100
[15] = preemergence, 8 g ai/ha, scale 0 to 100, 100 is complete control
[16] = preemergence, 16 g ai/ha, scale 0 to 100, 100 is complete control
[17] = Preemergence, 250 g ai/ha, scale 0 to 100

Structure (SMILES) | Cocklebur plant response rating ([1]; Postemergence, 31 g ai/ha) | Plant response rating, Cocklebur [1, 7] | Plant response rating, Cocklebur [1, 8] | Plant response rating, Cocklebur [1, 9] | Canarygrass plant response rating ([2]; Postemergence, 31 g ai/ha) | Plant response rating, Canarygrass [2, 7] | Plant response rating, Canarygrass [2, 8] | Plant response rating, Canarygrass [2, 9] | Plant response rating (scale of 0 to 100), Nightshade [3] | Nightshade plant response rating [3, 10] | Plant response rating, Nightshade ([3]; 13 to 15 days) | Nightshade plant response rating [3, 11] | Plant response rating, Russian Thistle ([4]; 31 g ai/ha) | Plant response rating, Russian Thistle ([4]; 62 g ai/ha) | Plant response rating, Russian Thistle ([4]; 125 g ai/ha) | Plant response rating, Common Waterhemp [5, 13] | Plant response rating, Common Waterhemp [5, 14] | Plant response rating, Green Foxtail [6, 13] | Plant response rating, Green Foxtail [6, 14] | also measured
CCc1cc(C(=O)NCC(F)(F)F)nn1Cc1cccc(OC(F)(F)F)c1 [Compound 20] | 20 | 40 | 35 | 35 | 5 | 15 | 10 | 15 |  |  |  |  |  |  |  |  |  |  |  | 
CCCNC(=O)c1cc(CC)n(Cc2cccc(OC(F)(F)F)c2)n1 [Compound 27] | 20 | 40 | 25 | 35 | 5 | 10 | 5 | 10 |  |  |  |  |  |  |  |  |  |  |  | 
CCc1cc(C(=O)NOC(C)C)nn1Cc1cccc(OC(F)(F)F)c1 [Compound 70] | 10 | 45 | 15 | 20 | 0 | 60 | 5 | 15 | 98 | 70 | 98 | 98 | 0 | 90 | 90 |  |  |  |  | Plant response rating (scale 0 to 100), Russian Thistle [4]: 0; Plant response rating, Russian Thistle ([4]; 250 g ai/ha): 100
CCONC(=O)c1cc(CC)n(Cc2cccc(OC(F)(F)F)c2)n1 [Compound 72] | 0 | 15 |  | 5 | 5 | 30 |  | 20 | 100 | 75 | 98 | 98 |  |  |  |  |  |  |  | Cocklebur plant response rating ([1]; postemergence, 62 g ai/ha): 0; Canarygrass plant response rating ([2]; postemergence, 62 g ai/ha): 10
Cc1cc(C(=O)NCC(F)(F)F)nn1Cc1ccnc(C(F)(F)F)c1 [Compound 74] | 20 | 55 |  | 50 | 0 | 5 |  | 0 | 98 | 90 | 90 | 95 | 70 | 85 | 95 |  |  |  |  | Cocklebur plant response rating ([1]; postemergence, 62 g ai/ha): 20; Canarygrass plant response rating ([2]; postemergence, 62 g ai/ha): 0
CCc1cc(C(=O)NC2CC2)nn1Cc1ccnc(C(F)(F)F)c1 [Compound 76] |  |  |  |  |  |  |  |  |  |  |  |  | 65 | 70 | 80 |  |  |  |  | Plant response rating (scale 0 to 100), Russian Thistle [4]: 50; Plant response rating, Russian Thistle ([4]; 250 g ai/ha): 95
CCc1cc(-c2ccc(C(F)(F)F)cc2)nn1Cc1ccnc(C(F)(F)F)c1 [Compound 110] |  |  |  |  |  |  |  |  |  |  |  |  |  |  |  | 100 | 100 | 100 | 100 | Plant response rating, Common Waterhemp [5, 12]: 85; Plant response rating, Common Waterhemp [5, 15]: 65; Plant response rating, Common Waterhemp [5, 16]: 65; Plant response rating, Green Foxtail [6, 12]: 75; Plant response rating, Green Foxtail [6, 15]: 25; Plant response rating, Green Foxtail [6, 16]: 30
CCCc1cc(C(=O)NC(C)C)nn1Cc1cc(C(F)(F)F)nn1C [Compound 201] |  |  |  |  |  |  |  |  |  |  |  |  |  |  |  | 75 | 80 | 40 | 75 | Plant response rating, Common Waterhemp ([5]; Preemergence, 16 g ai/ha, scale 0 to 100): 0; Plant response rating, Common Waterhemp [5, 17]: 100; Plant response rating, Common Waterhemp [5, 16]: 5; Plant response rating, Green Foxtail [6, 17]: 80; Plant response rating, Green Foxtail [6, 16]: 0
CCc1cc(C(=O)NCC(F)(F)F)nn1Cc1ccnc(Br)c1 [Compound 224] |  |  |  |  |  |  |  |  |  |  |  |  |  |  |  | 100 | 100 | 35 | 70 | Plant response rating, Common Waterhemp [5, 17]: 100; Plant response rating, Green Foxtail [6, 17]: 95
